Assay results published in US6613351B1, “Compound capable of introducing at least one molecule into a cell” (Biotech Tools S.A., priority 1993, dated 2003).

How the values were obtained:
CHO cells = assay: Transfection of adherent CHO cells with CAT plasmid, CAT assay; format: cell-based, Chinese Hamster; conditions: for transfection efficiency of the CAT gene, percentage of acetylated chloramphenicol in the cellular extract: adherent cells (CHO), 3 h incubation, medium with serum
Protocol: (§1) 5 μg of plasmid DNA and 11 μg (11 μl) of pure diC14-amidine suspension (for 25 μg (25 μl) of diC14-amidine/PE suspension (see example 2)) are separately diluted in a final volume of 50 μl with distilled water and sterilized. Both solutions are then mixed and incubated for 15 min at room temperature.
The cells are cultured in 6-well culture dishes until they are 80-90% confluent.
The suspension containing the complex (diC14-amidine-DNA or diC14-amidine/PE-DNA) is gently mixed with 2 ml of culture medium. The culture medium used for the transfection operation is identical to the usual culture medium for the cells to be transformed. The medium is prepared with 2.5% or without serum.
The mixture thus formed constitutes the “transfection medium”. The cells (about 10^6) are washed with the culture medium and the transfection medium is added. The medium is incubated for the desired period. This period may depend on the cell line to be transfected but an incubation time of 2-3 h is generally used. After incubation, the transfection medium is replaced with fresh medium; 6 hours later, the cells can be […] into 100 mm culture dishes.
(§2) CHO (Chinese Hamster Ovary) cells are cultured in F12 medium supplemented with 1% glutamine and 1% penicillin/streptomycin and containing 10% FCS (Fetal Calf Serum, K562 (human myeloid) cells are cultured in RFMI medium supplemented with antibiotics and non-essential amino acids and containing 10% FCS (0.5-1×10^6 cells/ml). Both cell lines are cultured under a CO2 atmosphere (37° C., 5% CO2).
(§3) The plasmid used is derived from the commercial plasmid pCMV5 into which the bacterial replication origin S1, the ampicillin resistance gene and the CAT gene of bacterial origin have been inserted. It is approximately 5000 base pairs in size and is stored at a concentration of 1 mg/ml.
The general procedure described above was followed; 5 μg (5 μl) of plasmid DNA and 11 μg (11 μl) of pure diC14-amidine suspension (or 25 μg (25 μl) of diC14-amidine/PE suspension) prepared as described above are used. The CHO cells (adherent) are plated in the 6-well culture dishes the day before the experiment in an amount of 10^6 cells/well; while the K562 cells (in suspension) are used in an amount of 10^6 cells per experiment.
(§4) The incubation was carried out for 3 h for the two cell lines. The transfection medium is the normal culture medium (with serum) with which vesicle vector (pure diC14-amidine or diC14-amidine/PE/DNA) has been mixed under the conditions described in the general procedure.
(§5) After incubation, the cells are treated as described above; the CHO cells are transferred after 6 h into 100 mm culture dishes. The two cell lines continue to grow for 36 h before the CAT assay performed as described by Gorman et al., B.H. (1982), Mol. Cell. Biol. 2, 1044-1051; in brief, the cell lysates are incubated at 37° C. with [^14C]chloramphenicol and acetyl CoA for 2 h and extracted with ethyl acetate. The organic phase is eluted by TLC (thin-layer chromatography) with chloroform/methanol 95:5. The acetylation of chloramphenicol is determined by autoradiography on the chromatograms and counting of the spots on the plate.
(§6) Table 5 below gives the comparison of the transfection efficiency of the CAT gene for diC14 and the product DOTAP® marketed by Boehringer Mannheim, expressed as percentage of acetylated chloramphenicol in the cellular extract, under identical experimental conditions.

K562 cells = assay: Transfection of K562 suspension cells with CAT plasmid, CAT assay; format: cell-based, human; conditions: 3 h incubation, medium with serum
Protocol: as §1
The suspension containing the complex (diC14-amidine-DNA or diC14-amidine/PE-DNA) is gently mixed with 10 ml of medium. The mixture thus formed constitutes the “transfection medium”. Aliquots of 10^6 cells are centrifuged and the pellets are resuspended in the transfection medium. The cell suspensions are distributed into 100 mm culture dishes. The suspensions are incubated for the desired period; after incubation, the cells are centrifuged and resuspended in 10 ml of fresh medium and then cultured normally.
as §2, §3
[…] The CHO cells (adherent) are plated in the 6-well culture dishes the day before the experiment in an amount of 10^6 cells/well; while the K562 cells (in suspension) are used in an amount of 10^6 cells per experiment.
as §4
as §5, with “The organic phase is eluted by TLC (thin-layer chromatography) with chloroform/methanol 95:5.” left out
as §6

[1] = vector composition 2 + 5 (μg) plasmid DNA + cationic vesicles
[2] = vector composition 5 + 10 (μg) plasmid DNA + cationic vesicles

Compound	transfection efficiency of the CAT gene, percentage of acetylated chloramphenicol in the cellular extract (CHO cells; [1]) [%]	transfection efficiency of the CAT gene, percentage of acetylated chloramphenicol in the cellular extract (CHO cells; [2]) [%]	quantities needed for transfection efficiencies relative to available commercial products (CHO cells; compared with DOTAP (Boehringer Mannheim) and Lipofectin (Gibco BRL), CHO and K562 cells)	transfection efficiency of the CAT gene, percentage of acetylated chloramphenicol in the cellular extract (K562 cells; [1]) [%]	transfection efficiency of the CAT gene, percentage of acetylated chloramphenicol in the cellular extract (K562 cells; [2]) [%]
CCCCCCCCCCCCCCN=C(CCNCCCCCCCCCCCCCC)NC(C)(C)C [diC14-t-but, 3-tetradecylamino-N-tert-butyl-N′-tetradecylpropionamidine]	63	65	two to three times lower	60	68
CCCCCCCC/C=C\CCCCCCCC(=O)OCC(C[N+](C)(C)C)OC(=O)CCCCCCC/C=C\CCCCCCCC.COS(=O)(=O)[O-] (stereo not drawn) [DOTAP, N-(2,3-dioleoyloxy)propyl-N,N,N-trimethylammonium methyl sulfate, reference compound]	32	40	–	29	36
